Our source for the IC50 and Ki values is patent publication US9040534B2, “[1,2,4]triazolo[4,3-a]pyrazines as P2X7 modulators” (Janssen Pharmaceutica NV, priority 2013, dated 2015).

Experiment [1] addresses T1, P2X7 (Homo sapiens (Human), UniProt Q99572). The experiment is described as follows: Ca2+ flux (FLIPR) in 1321N1 cells expressing recombinant human P2X7 channel. The class given is cell-based. Conditions: 250 μM BzATP. As to the method: (§1) (A) Ca^2+ Flux: 1321N1 cells expressing the recombinant human, rat or mouse P2X7 channel was cultured in HyQ DME/(HyClone/Dulbecco's Modified Eagle Medium) high glucose supplemented with 10% Fetal Bovine Serum (FBS) and appropriate selection marker. Cells were seeded at a density of 25000 cells/well (96-well clear bottom black walled plates) in 100 μl volume/well. On the day of the experiment, cell plates were washed with assay buffer, containing (in mM): 130 NaCl, 2 KCl, 1 CaCl2, 1 MgCl2, 10 HEPES, 5 glucose; pH 7.40 and 300 mOs. After the wash, cells were loaded with the Calcium-4 dye (Molecular Device) and incubated in the dark for 60 minutes. Test compounds were prepared at 250× the test concentration in neat DMSO. Intermediate 96-well compound plates were prepared by transferring 1.2 μL of the compound into 300 μL of assay buffer. A further 3× dilution occurred when transferring 50 μL/well of the compound plate to 100 μL/well in the cell plate. Cells were incubated with test compounds and dye for 30 minutes. […] The fluorescence change was measured 180 seconds after adding the agonist.

Experiment [2] has as its target rat P2X7 (Rattus norvegicus (Rat), UniProt Q64663). Nature of the experiment: Ca2+ flux (FLIPR) in 1321N1 cells expressing recombinant rat P2X7 channel. Particulars: 250 μM BzATP. Format: cell-based. How it is done:
as §1
On the technique in general: Calcium flux is commonly read through the fluorescence of an indicator in the cells.

Experiment [3] has as its target T1, P2X7. The experiment is described as follows: Radioligand binding, human P2X7-1321N1 cell membranes, tritiated A-804598 tracer. Conditions: 1 hour at 4° C. As to the method: (B) Radioligand binding: human or rat P2X7-1321N1 cells were collected and frozen @ −80° C. On the day of the experiment, cell membrane preparations were made according to standard published methods. […] The compound can be prepared as described in the literature. […] The assay was terminated by filtration (GF/B filters pre-soaked with 0.3% PEI) and washed with washing buffer (Tris-HCl 50 mM). The IC50 generated in the binding assay was corrected for tracer concentration and affinity of the tracer to derive at the affinity (Ki) of the test compounds.

rat P2X7, sequence (Q64663 whole entry): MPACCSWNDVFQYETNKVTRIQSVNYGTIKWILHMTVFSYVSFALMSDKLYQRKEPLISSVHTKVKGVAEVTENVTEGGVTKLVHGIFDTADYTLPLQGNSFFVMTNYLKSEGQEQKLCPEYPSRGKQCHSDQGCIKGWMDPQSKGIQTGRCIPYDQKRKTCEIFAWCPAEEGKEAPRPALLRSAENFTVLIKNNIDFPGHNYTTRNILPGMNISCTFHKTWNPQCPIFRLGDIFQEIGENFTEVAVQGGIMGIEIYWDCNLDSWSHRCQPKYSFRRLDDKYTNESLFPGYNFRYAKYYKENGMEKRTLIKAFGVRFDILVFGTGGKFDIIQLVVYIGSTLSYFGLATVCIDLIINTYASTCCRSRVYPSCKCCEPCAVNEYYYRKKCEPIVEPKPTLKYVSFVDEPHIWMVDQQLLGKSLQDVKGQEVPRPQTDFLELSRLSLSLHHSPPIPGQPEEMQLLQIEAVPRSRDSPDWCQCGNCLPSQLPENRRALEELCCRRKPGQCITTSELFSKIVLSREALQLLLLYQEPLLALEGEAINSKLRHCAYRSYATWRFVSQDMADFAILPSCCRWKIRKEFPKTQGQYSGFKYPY
T1 sequence (Q99572 whole entry): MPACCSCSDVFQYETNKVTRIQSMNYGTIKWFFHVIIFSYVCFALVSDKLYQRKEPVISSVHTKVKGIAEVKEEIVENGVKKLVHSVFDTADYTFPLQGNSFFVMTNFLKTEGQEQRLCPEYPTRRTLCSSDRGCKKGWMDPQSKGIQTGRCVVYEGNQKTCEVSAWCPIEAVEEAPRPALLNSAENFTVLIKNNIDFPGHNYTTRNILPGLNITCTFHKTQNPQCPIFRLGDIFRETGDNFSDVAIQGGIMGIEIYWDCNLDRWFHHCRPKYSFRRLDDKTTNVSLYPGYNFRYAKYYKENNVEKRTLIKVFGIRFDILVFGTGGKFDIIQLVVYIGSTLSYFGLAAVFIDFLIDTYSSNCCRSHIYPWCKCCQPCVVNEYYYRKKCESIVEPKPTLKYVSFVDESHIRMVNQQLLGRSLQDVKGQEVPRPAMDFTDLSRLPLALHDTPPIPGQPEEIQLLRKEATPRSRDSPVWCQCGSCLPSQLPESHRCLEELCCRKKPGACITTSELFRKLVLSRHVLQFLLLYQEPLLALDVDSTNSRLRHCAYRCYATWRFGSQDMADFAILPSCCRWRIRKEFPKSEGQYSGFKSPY

For orientation: IC50 means the midpoint of a concentration-inhibition curve. `CC(c1cccc(C(F)(F)F)c1Cl)N1CCn2c(nnc2-c2cnccn2)C1=O` (racemic) [Example 4, (±)7-{1-[2-Chloro-3-(trifluoromethyl)phenyl]ethyl}-3-pyrazin-2-yl-6,7-dihydro[1,2,4]triazolo[4,3-a]pyrazin-8(5H)-one]: the concentration for half-maximal inhibition (IC50) is 2690 nM in experiment [1] and more than 10000 nM in experiment [2].
What is called Ki is the dissociation constant of the complex between target and ligand, obtained from inhibition or displacement. A higher Ki goes with lower affinity. Take `O=C1c2nnc(-c3ncc(F)cn3)n2CC(C2CC2)N1Cc1cccc(C(F)(F)F)c1Cl` (racemic) [Example 70, (±)-7-[2-Chloro-3-(trifluoromethyl)benzyl]-6-cyclopropyl-3-(5-fluoropyrimidin-2-yl)-6,7-dihydro[1,2,4]triazolo[4,3-a]pyrazin-8(5H)-one]: the 50% inhibitory concentration (IC50) was determined as 7.9 nM in experiment [1] and 794 nM in experiment [2]. In addition, the Ki in experiment [3] stood at 7.9 nM.
On to `O=C1c2nnc(-c3ccc(F)cc3)n2CCN1Cc1cccc(C(F)(F)F)c1Cl` [Example 1, 7-[2-Chloro-3-(trifluoromethyl)benzyl]-3-(4-fluorophenyl)-6,7-dihydro[1,2,4]triazolo[4,3-a]pyrazin-8(5H)-one], for which the IC50 in experiment [1] worked out at 148 nM; in experiment [2], 28400 nM. The molecule also displayed a Ki in experiment [3] of 63.1 nM.
As to `O=C1c2nnc(-c3cnccn3)n2CCN1Cc1c(Cl)cccc1Cl` [Example 5, 7-(2,6-Dichlorobenzyl)-3-pyrazin-2-yl-6,7-dihydro[1,2,4]triazolo[4,3-a]pyrazin-8(5H)-one], the IC50 was 942 nM in experiment [1] and 2560 nM in experiment [2].
Take `O=C1c2nnc(-c3cnccn3)n2CCN1Cc1cccc(F)c1F` [Example 6, 7-(2,3-Difluorobenzyl)-3-pyrazin-2-yl-6,7-dihydro[1,2,4]triazolo[4,3-a]pyrazin-8(5H)-one]: the IC50 in experiment [2] is more than 10000 nM.
In the case of `CS(=O)(=O)c1cc(Cl)ccc1CN1CCn2c(nnc2-c2cnccn2)C1=O` [Example 7, 7-[4-Chloro-2-(methylsulfonyl)benzyl]-3-pyrazin-2-yl-6,7-dihydro[1,2,4]triazolo[4,3-a]pyrazin-8(5H)-one], the results for the 50% inhibitory concentration (IC50) in experiment [1] and in experiment [2] were 3400 nM and more than 10000 nM, respectively.
For `C[C@H]1Cn2c(nnc2-c2cn[nH]c2)C(=O)N1Cc1cccc(C(F)(F)F)c1Cl` [Example 25, (6S)-7-[2-Chloro-3-(trifluoromethyl)benzyl]-6-methyl-3-(1H-pyrazol-4-yl)-6,7-dihydro[1,2,4]triazolo[4,3-a]pyrazin-8(5H)-one], the 50% inhibitory concentration (IC50) in experiment [1] was found to be 96.6 nM; in experiment [2], 3150 nM. Affinity in experiment [3] was put at a Ki of 25.1 nM.
As to `C[C@H]1Cn2c(nnc2-c2nccs2)C(=O)N1Cc1cccc(C(F)(F)F)c1Cl` [Example 31, (6S)-7-[2-Chloro-3-(trifluoromethyl)benzyl]-6-methyl-3-(1,3-thiazol-2-yl)-6,7-dihydro[1,2,4]triazolo[4,3-a]pyrazin-8(5H)-one], the concentration for half-maximal inhibition (IC50) in experiment [1] was 1.2 nM; in experiment [2], 135 nM. In experiment [3], this molecule gave a Ki of 4 nM.
Consider `C[C@H]1Cn2c(nnc2-c2ncc(F)cn2)C(=O)N1Cc1cccc(C(F)(F)F)c1Cl` [Example 34, (6S)-7-[2-Chloro-3-(trifluoromethyl)benzyl]-3-(5-fluoropyrimidin-2-yl)-6-methyl-6,7-dihydro[1,2,4]triazolo[4,3-a]pyrazin-8(5H)-one], for which the concentration for half-maximal inhibition (IC50) in experiment [1] amounted to 1 nM.
Take `COc1ccnc(-c2nnc3n2C[C@H](C)N(Cc2cccc(C(F)(F)F)c2Cl)C3=O)c1` [Example 35, (6S)-7-[2-Chloro-3-(trifluoromethyl)benzyl]-3-(4-methoxypyridin-2-yl)-6-methyl-6,7-dihydro[1,2,4]triazolo[4,3-a]pyrazin-8(5H)-one]: the figures for the IC50 in experiment [1] and in experiment [2] were 0.7 nM and 10.6 nM, respectively. This molecule displayed an inhibition constant (Ki) in experiment [3] of 2 nM.
Turning to `C[C@H]1Cn2c(nnc2-c2csc(C(F)(F)F)n2)C(=O)N1Cc1cccc(C(F)(F)F)c1Cl` [Example 38, (6S)-7-[2-Chloro-3-(trifluoromethyl)benzyl]-6-methyl-3-[2-(trifluoromethyl)-1,3-thiazol-4-yl]-6,7-dihydro[1,2,4]triazolo[4,3-a]pyrazin-8(5H)-one], the IC50 in experiment [1] is 977 nM; in experiment [2] it was 2610 nM.
Turning to `Cc1nc(C)c(-c2nnc3n2C[C@H](C)N(Cc2cccc(C(F)(F)F)c2Cl)C3=O)s1` [Example 39, (6S)-7-[2-Chloro-3-(trifluoromethyl)benzyl]-3-(2,4-dimethyl-1,3-thiazol-5-yl)-6-methyl-6,7-dihydro[1,2,4]triazolo[4,3-a]pyrazin-8(5H)-one], the IC50 in experiment [1] was found to be 22.4 nM; in experiment [2] it was 8670 nM. Besides, in experiment [3], the Ki worked out at 27.5 nM.
Turning to `C[C@H]1Cn2c(nnc2-c2cccnn2)C(=O)N1Cc1cccc(C(F)(F)F)c1Cl` [Example 44, (6S)-7-[2-Chloro-3-(trifluoromethyl)benzyl]-6-methyl-3-pyridazin-3-yl-6,7-dihydro[1,2,4]triazolo[4,3-a]pyrazin-8(5H)-one], the IC50 in experiment [1] came to 177 nM; in experiment [2], 19900 nM.
For `C[C@H]1Cn2c(nnc2C2CCC2)C(=O)N1Cc1cccc(C(F)(F)F)c1Cl` [Example 49, (6S)-7-[2-Chloro-3-(trifluoromethyl)benzyl]-3-cyclobutyl-6-methyl-6,7-dihydro[1,2,4]triazolo[4,3-a]pyrazin-8(5H)-one], in that order: 386 nM and 13200 nM.
Take `C[C@H]1Cn2c(nnc2C2CC2)C(=O)N1Cc1cccc(C(F)(F)F)c1Cl` [Example 50, (6S)-7-[2-Chloro-3-(trifluoromethyl)benzyl]-3-cyclopropyl-6-methyl-6,7-dihydro[1,2,4]triazolo[4,3-a]pyrazin-8(5H)-one]: the 50% inhibitory concentration (IC50) in experiment [1] is 371 nM; in experiment [2], more than 10000 nM.
For `C[C@H]1Cn2c(nnc2C2CCCCC2)C(=O)N1Cc1cccc(C(F)(F)F)c1Cl` [Example 51, (6S)-7-[2-Chloro-3-(trifluoromethyl)benzyl]-3-cyclohexyl-6-methyl-6,7-dihydro[1,2,4]triazolo[4,3-a]pyrazin-8(5H)-one], in that order: 766 nM and more than 10000 nM.
As to `C[C@H]1Cn2c(nnc2C2CCOCC2)C(=O)N1Cc1cccc(C(F)(F)F)c1Cl` [Example 53, (6S)-7-[2-Chloro-3-(trifluoromethyl)benzyl]-6-methyl-3-(tetrahydro-2H-pyran-4-yl)-6,7-dihydro[1,2,4]triazolo[4,3-a]pyrazin-8(5H)-one], the IC50 in experiment [2] was more than 10000 nM.
As for `C[C@H]1Cn2c(nnc2-c2cnccn2)C(=O)N1Cc1ccccc1` [Example 79, (6S)-7-Benzyl-6-methyl-3-pyrazin-2-yl-6,7-dihydro[1,2,4]triazolo[4,3-a]pyrazin-8(5H)-one], the 50% inhibitory concentration (IC50) in experiment [2] was more than 10000 nM.
For `C[C@H]1Cn2c(nnc2-c2cnccn2)C(=O)N1Cc1ccccc1Cl` [Example 80, (6S)-7-(2-Chlorobenzyl)-6-methyl-3-pyrazin-2-yl-6,7-dihydro[1,2,4]triazolo[4,3-a]pyrazin-8(5H)-one], the IC50 in experiment [2] stood at 41400 nM.
Consider `C[C@H]1Cn2c(nnc2-c2cnccn2)C(=O)N1Cc1ccccc1OC(F)(F)F` [Example 83, (6S)-6-Methyl-3-pyrazin-2-yl-7-[2-(trifluoromethoxy)benzyl]-6,7-dihydro[1,2,4]triazolo[4,3-a]pyrazin-8(5H)-one], for which the IC50 in experiment [1] was 822 nM; in experiment [2] it was 11100 nM.
On to `C[C@H]1Cn2c(nnc2-c2cnccn2)C(=O)N1Cc1cc2c(cc1Cl)OCO2` [Example 84, (6S)-7-[(6-Chloro-1,3-benzodioxol-5-yl)methyl]-6-methyl-3-pyrazin-2-yl-6,7-dihydro[1,2,4]triazolo[4,3-a]pyrazin-8(5H)-one], for which the IC50 in experiment [1] is 340 nM; in experiment [2] it was more than 10000 nM.
In the case of `C[C@H]1Cn2c(nnc2-c2cnccn2)C(=O)N1Cc1c(Cl)cccc1Cl` [Example 86, (6S)-7-(2,6-Dichlorobenzyl)-6-methyl-3-pyrazin-2-yl-6,7-dihydro[1,2,4]triazolo[4,3-a]pyrazin-8(5H)-one], the concentration for half-maximal inhibition (IC50) in experiment [2] was 1370 nM.
On to `C[C@H]1Cn2c(nnc2-c2cnccn2)C(=O)N1Cc1ccccc1[N+](=O)[O-]` [Example 89, (6S)-6-Methyl-7-(2-nitrobenzyl)-3-pyrazin-2-yl-6,7-dihydro[1,2,4]triazolo[4,3-a]pyrazin-8(5H)-one], for which the IC50 is 26.4 nM in experiment [1] and 7280 nM in experiment [2].
For `C[C@H]1Cn2c(nnc2-c2cnccn2)C(=O)N1Cc1cc([N+](=O)[O-])ccc1Cl` [Example 90, (6S)-7-(2-Chloro-5-nitrobenzyl)-6-methyl-3-pyrazin-2-yl-6,7-dihydro[1,2,4]triazolo[4,3-a]pyrazin-8(5H)-one], the half-inhibitory concentration (IC50) worked out at 1000 nM in experiment [1] and 20000 nM in experiment [2].
For `C[C@H]1Cn2c(nnc2-c2cnccn2)C(=O)N1Cc1cc(N)ccc1Cl` [Example 91, (6S)-7-(5-Amino-2-chlorobenzyl)-6-methyl-3-pyrazin-2-yl-6,7-dihydro[1,2,4]triazolo[4,3-a]pyrazin-8(5H)-one], in that order: 1220 nM and 18900 nM.
